Data on 1 molecule can be found in patent US20100143383A1, “OXGR1 AGONISTS FOR USE IN THERAPIES FOR METABOLIC DISORDERS” (priority 2008, published 2010).

pEC50: −log10 of the molar value.

The target of one assay is recombinant human OXGR1 (Homo sapiens, UniProt Q96P68). The conditions noted are these: Nature 429:188-193, 2004, read-out: EC50 for activation of OXGR1; cited from earlier work.
For the next assay, the system named is isolated mouse islets. In words: glucose-stimulated insulin secretion (GSIS/GDIS) in isolated mouse islets, insulin by ELISA. The conditions noted are these: WT C57BL/6J mouse islets, 60 min, FIG. 3. In kind it is cell-based. As for the experimental part: Pancreatic islets of Langerhans were isolated from the pancreata of wild type (WT) C57BL/6J mice (Taconic Farm, N.Y.) by collagenase digestion and discontinuous Ficoll gradient separation, a modification of the original method of Lacy and Kostianovsky (Lacy P E, Kostianovsky M: Diabetes 16:35-39, 1967). The islets were cultured overnight in RPMI 1640 medium (11 mM glucose) before GDIS assay.
To measure GSIS, islets were first preincubated for 30 min in the Krebs-Ringer bicarbonate (KRB) buffer with 2 mM glucose (in petri dishes). The KRB medium contains 143.5 mM Na+, 5.8 mM K+, 2.5 mM Ca2+, 1.2 mM Mg2+, 124.1 mM Cl−, 1.2 mM PO43−, 1.2 mM […], 25 mM CO32−2 mg/ml bovine serum albumin (pH 7.4). The islets were then transferred to a 96-well plate (one islet/well) and incubated at 37° C. for 60 min in 200 μl of KRB buffer with 2 or 16 mM glucose, and other agents to be tested such as GLP-1 included as a control. (Zhou Y P, et al: J Biol Chem 278:51316-51323, 2003). Insulin was measured in aliquots of the incubation buffer by ELISA with a commercial kit (ALPCO Diagnostics, Windham, N.H.).
The compound had no effects on the basal insulin secretion at 2 mM glucose (G2).

Another assay addresses recombinant mouse OXGR1 (Mus musculus, UniProt Q6IYF8). Particulars: Nature 429:188-193, 2004, read-out: EC50 for activation of OXGR1; cited from earlier work.

recombinant human OXGR1, sequence (Q96P68 whole entry): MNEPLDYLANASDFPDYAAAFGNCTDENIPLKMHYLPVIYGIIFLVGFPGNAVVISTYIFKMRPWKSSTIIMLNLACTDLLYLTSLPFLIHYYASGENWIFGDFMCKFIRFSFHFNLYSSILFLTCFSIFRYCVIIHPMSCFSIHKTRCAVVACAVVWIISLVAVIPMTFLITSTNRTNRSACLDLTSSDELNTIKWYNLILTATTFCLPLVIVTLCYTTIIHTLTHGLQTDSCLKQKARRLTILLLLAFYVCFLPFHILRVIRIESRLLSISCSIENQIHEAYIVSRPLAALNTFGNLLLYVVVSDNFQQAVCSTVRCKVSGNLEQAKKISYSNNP
recombinant mouse OXGR1, sequence (Q6IYF8 whole entry): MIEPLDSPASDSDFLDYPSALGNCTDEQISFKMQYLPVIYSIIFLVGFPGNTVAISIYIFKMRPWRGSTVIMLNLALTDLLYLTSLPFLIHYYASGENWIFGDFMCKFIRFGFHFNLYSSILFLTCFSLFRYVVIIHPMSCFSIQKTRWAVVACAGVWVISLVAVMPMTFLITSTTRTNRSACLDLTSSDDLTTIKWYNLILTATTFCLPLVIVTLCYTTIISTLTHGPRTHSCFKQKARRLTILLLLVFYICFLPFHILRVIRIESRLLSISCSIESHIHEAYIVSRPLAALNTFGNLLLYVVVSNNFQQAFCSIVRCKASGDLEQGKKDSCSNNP

As to `O=C(O)CCC(=O)C(=O)O` [α-KG, α-ketoglutarate], the pEC50 on recombinant human OXGR1 and on recombinant mouse OXGR1 was 4.15 each time. For the same molecule, in the assay with isolated mouse islets (2 mM glucose), the “effect on basal insulin secretion at 2 mM glucose (G2)” value was “no effects”. The “effect on 16 mM glucose (G16) stimulated insulin secretion” value in the assay on isolated mouse islets (16 mM glucose) is listed as “dose-dependently enhanced”.
